Patent publication EP4733299A1, “SULFUR-CONTAINING FUSED RING COMPOUND, PHARMACEUTICAL COMPOSITION CONTAINING SAME, AND PREPARATION METHOD THEREFOR AND USE THEREOF” (Shenzhen Braegen Pharmaceutical Co., Ltd., priority 2023, dated 2024)

Assays:
[1] = In vivo PK profiling, plasma and brain exposure; design: species or system male CD-1 (ICR) mice; conditions: 5 mg/kg via tail vein injection; for Kp at 1 min: at 1 minute, read-out: brain/plasma ratio; for half-life: plasma
Procedure: To test whether these compounds are brain permeable in vivo, in vivo PK profiling was conducted to determain brain exposure.
An in vivo PK study was performed in male CD-1 (ICR) mice. Weighed a known amount of test compound and dissolved in vehicle (5% NMP + 15% Solutol + 80% PBS) to make a formulation (1 mg/mL). Then administered 5 mg/kg compound via tail vein injection into mice. The experiment included five groups (sampling time points), each group consisting of three male CD-1 (ICR) mice (body weight range: 29.1-30.6 g). At designated time points (0, 1, 5, 15, and 30 minutes post-injection), serial venous blood samples (approximately 30 µL each) and brain tissue samples were harvested from each animal. Blood samples were collected into Vacutainer IM tubes containing EDTA-K2 anticoagulant, inverted several times, and immediately placed on wet ice pending plasma centrifugation. For brain tissue samples, PBS (100 mM, pH 7.4) at […] the weight of the tissue (1:4, w/v) was added for homogenization. The concentrations of the test compound in plasma and brain tissue homogenates were measured by the LC/MS/MS analysis, with the specific operations as follows: Aliquots of 10 µL plasma sample or 50 µL brain homogenate sample was transferred to a 96-well plate, mixed with 200 µL protein precipitation solvent (methanol/acetonitrile, 1:1 v/v, containing 5 ng/mL Terfenadine). After protein precipitation, the supernatant was collected and diluted 3-fold with methanol/water (1:1, v/v, containing 0.1% FA). 1 µL of plasma samples or 3 µL of brain tissue homogenate samples was taken for LC/MS/MS analysis.

[2] = target: T1, a-Syn aggregates (Homo sapiens, UniProt P37840, A53T); experiment: Binding specificity on brain slices of rotenone-treated SNCA transgenic mice; conditions: brain slices, rotenone-treated SNCA Tg mice; Fig. 2
T1 construct: tissue The Jackson Laboratory 017682; host or cells: brain sections of rotenone-treated transgenic mice
Procedure: To further explore whether the positive compounds selectively bind to Lewy bodies, brain slices from mice were used to test the binding specificity assays.
Staining with a-Synuclein protein coding gene (SNCA) transgenic mice (the Jackson Laboratory; stock numbers: 017682) were treated with rotenone (Oral gavage of rotenone under the following protocol: Mice were treated with 0.1 mL/25 g of vehicle containing 1% methylcellulose (Sigma, Catalog No.: M0512) and 1.25% chloroform (Sigma, Catalog No.: 2432) or a solution containing 0.625 mg/mL of rotenone (ULTRA Scientific, Catalog No.: PST-890) with 1% methylcellulose and 1.25% chloroform. We prepared rotenone solution by dissolving rotenone in chloroform and then diluting into 1% methylcellulose solution while mixing vigorously. Rotenone or vehicle control was orally administered with a 1.2 x 60 mm gavage (Unimed, Switzerland) once a day for 5 days/week, consecutively for 3 months.), which contains abundant LB-like inclusions. Furthermore, brain slices from NFT abundant Tau P301S mice and Aβ-enriched 5 x FAD mice were also used separately.
The brain slices were fixed and incubated for 12 h at 4 °C with primary antibodies followed by incubation with Alexa Fluor 568-, Alexa Fluor 488-, or Alexa Fluor 647-conjugated secondary antibodies (Invitrogen) for 3 h at room temperature. Then stained with ThS (Sigma, Catalog No.: T1892) or candidate compounds at room temperature, 4',6-diamidino-2-phenylindole (DAPI, 1 µg/ml) (Sigma-Aldrich) was used for the nuclear staining. The slides were imaged with Olympus FluoView FV1000 confocal laser scanning microscope using Olympus FluoView software to acquire data.

[3] = tested on: Aβ plaques; experiment: Ex vivo staining of human AD patient brain sections; assay type: binding; conditions: AD brains; Fig. 3
Procedure: (§1) The ex vivo screening was extended into human DLB, and AD patient samples. Neurodegenerative diseases of DLB belong to synucleino-pathies with well-defined Lewy bodies. Therefore, the positive compounds should show robust signals with LBs and LNs.
(§2) For immunohistochemical staining, deparaffinized and antigen-retrieved 20 µm-thick human brain sections were treated with 0.3% H2O2 at room temperature for 10 min. Subsequently, the sections were washed in PBS with 0.3% Triton X-100 3 times and then blocked with 1% BSA for 30 min, followed by overnight incubation with anti-Aβ/AT8/α-Syn pS129 antibody at 4 °C. The signal was developed using a Histostain-SP kit (Invitrogen, Catalog No.: 95-9943). After washing, the sections were covered with a glass cover using mounting solution.

[4] = tested on: AT8-positive NFTs; experiment: as above; assay type: binding; conditions: AD brains; Fig. 3
Procedure: as §1, §2

[5] = target: T2, AT8 (Homo sapiens, UniProt P10636, P618S); experiment: In vivo validation: tail vein injection, then staining of brain sections; design: species or system Tau P301S mice; conditions: 2 mg/kg tail vein injection; 0.5 hours after administration
T2 construct: tissue The Jackson Laboratory 008169; host or cells: brain of Tau P301S mice, compound injected in vivo, sections made afterwards
Procedure: In vivo validation of the compounds was performed using 8-month-old wild-type mice (Jiangsu Aniphe Biolaboratory Inc), 12-month-old 5xFAD mice (The Jackson Laboratory; Catalog No.: 034840), 6-month-old Tau P301S mice (The Jackson Laboratory; Catalog No.: 008169), and rotenone-treated α-Syn A53T mice (The Jackson Laboratory; Catalog No.: 017682). All mice were stratified by sex and randomly divided into groups, and the compounds were administered via tail vein injection at a dose of 2 mg/kg. Tissues were harvested and mouse brain sections were prepared 0.5 hours after administration, followed by staining with anti-Aβ (Biolegend; Catalog No.: SIG-39300) or AT8 (Thermo Fisher; Catalog No.: MN1020) together with the compounds, respectively.

[6] = male, CD-1 (ICR), mouse, brain/plasma, intravenous
[7] = male, CD-1 (ICR), mouse, brain/plasma, intravenous, read-out: brain/plasma ratio, maximum
[8] = male, CD-1 (ICR), mouse, intravenous

T2 sequence (P10636 1-412 isoform P10636-7 P272S): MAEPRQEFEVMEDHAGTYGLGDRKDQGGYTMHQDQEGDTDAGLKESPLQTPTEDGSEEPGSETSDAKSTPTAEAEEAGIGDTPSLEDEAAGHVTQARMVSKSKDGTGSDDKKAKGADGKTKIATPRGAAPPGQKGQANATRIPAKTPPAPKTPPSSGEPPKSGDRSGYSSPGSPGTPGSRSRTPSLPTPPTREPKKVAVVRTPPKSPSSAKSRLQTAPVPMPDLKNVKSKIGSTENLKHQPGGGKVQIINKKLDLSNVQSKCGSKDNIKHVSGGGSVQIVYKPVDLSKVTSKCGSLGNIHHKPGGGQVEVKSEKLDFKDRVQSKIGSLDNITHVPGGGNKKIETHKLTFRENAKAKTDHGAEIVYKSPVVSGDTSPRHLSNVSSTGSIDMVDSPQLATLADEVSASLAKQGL

| Compound | plasma half-life extension compared to F0502B [1] [fold] | Kp at 1 min [1, 6] | Kp at 15 min [1, 7] | half-life [1, 8] [min] | capture of a-Syn aggregates [2] | staining of Aβ plaques [3] | staining of AT8-positive NFTs [4] | specific binding to AT8 [5] | Kp at 30 min ([1]; male, CD-1 (ICR), mouse, brain/plasma, intravenous, at 30 minutes, read-out: brain/plasma ratio, maximum) |
| --- | --- | --- | --- | --- | --- | --- | --- | --- | --- |
| Cc1cc2nc(/C=C/c3ccc(O)c(N)c3)sc2cc1N(C)CCOCCF [Compound C, (E)-2-amino-4-(2-(6-((2-(2-fluoroethoxy)ethyl)(methyl)amino)-5-methylbenzo[d]thiazol-2-yl)vinyl)phenol] | 10 | 0.24 | 1.29 | 68.4 | sensitively captured a-Syn aggregates | did not stain | did not stain | no specific binding | – |
| COc1c(/C=C/c2nc3cc(C)c(N(C)CCOCCF)cc3s2)ccc(O)c1Br [Compound E, (E)-2-bromo-4-(2-(6-((2-(2-fluoroethoxy)ethyl)(methyl)amino)-5-methylbenzo[d]thiazol-2-yl)vinyl)-3-methoxyphenol] | – | 0.12 | 3.37 | – | sensitively captured a-Syn aggregates | did not stain | did not stain | no specific binding | – |
| CCN(CCOCCF)c1cc2sc(/C=C/c3ccc(O)c(Br)c3)nc2cc1C [Compound R, (E)-2-bromo-4-(2-(6-(ethyl(2-(2-fluoroethoxy)ethyl)amino)-5-methylbenzo[d]thiazol-2-yl)vinyl)phenol] | 4.7 | 0.05 | – | 32.4 | sensitively captured a-Syn aggregates | did not stain | did not stain | no specific binding | 2.55 |
